# Results: patent publication US11174252B2, “Heterocyclic compounds as kinase inhibitors” (priority 2018, dated 2021)
# Where a name gives a salt, the structure may show the parent alone. Read-outs that look alike come from different tables or passages of the source.
# Legend:
# [1] = test system: pRb (Ser780 phosphorylation state of RB1) in MCF-7 cells; test: Determination of pRb levels (Ser780 phosphorylation of RB1, ELISA) in MCF-7 cells; assay type: cell-based; conditions: Homo sapiens, 24 h; for inhibition at 0.01 µM: MCF7, 0.01 μM; for inhibition at 0.1 µM: MCF7, 0.1 μM; for inhibition at 1 µM: MCF7, 1 μM
# Experimental: […] of the retinoblastoma protein (pRb) by cyclin D:Cdk4/6 complexes results in […] pRb, which is a clinically relevant biomarker associated with CDK4 or CDK6 inhibition. As a confirmatory measure of functional activity of CDK4/6, the Ser780 phosphorylation state of RB1 was assessed. MCF-7 cells were plated at 2.5×10^5 to 3.0×10^6 cells/well in 6-well cell-culture plates and incubated at 37° C. for 24 h in MEM medium supplemented with 10% FBS. Cells were treated for 24 h with a medium containing test compound at various concentrations (e.g., 0.01, 0.1, 1 μM) or with DMSO (≤1%) in duplicate. After incubation period, the media was removed, and cells were rinsed once with ice-cold PBS and lysed with 0.2 mL of Cell Lysis Buffer containing 1 mM PMSF and Protease Inhibitor. Protein concentration was estimated following Bradford method. The lysis and the pRB measurements were performed following the manufacturer's ELISA kit protocols and buffers (Cell Signaling Technology, Cat. No.: 13016C). pRb inhibition of test compounds were calculated as percentage of vehicle control.
# HCT-116 = test: Cancer cell proliferation assay, single agent; assay type: cell-based; conditions: Homo sapiens, Treatment Duration 72 h, read-out: IC50 HCT116
# FMS kinase = FMS kinase (Homo sapiens (Human), UniProt P07333); test: LanthaScreen kinase assay (ATP, fluorescent-PolyGT substrate, TR-FRET); assay type: biochemical
# PI3Kδ kinase = PI3Kδ kinase (Homo sapiens (Human), UniProt O00329); test: PI3Kδ kinase ADP-Glo assay (Reaction Biology Corporation); conditions: read-out: PI3Kδ IC50
# BT-549 = test: Cancer cell proliferation assay, single agent; assay type: cell-based; conditions: Homo sapiens, BT-549, 24 h, read-out: IC50 BT-549
# MCF-7 = test: Cancer cell proliferation assay, single agent; assay type: cell-based; conditions: Homo sapiens, read-out: IC50 MCF-7
# DU4475 = test: Cancer cell proliferation assay, single agent; assay type: cell-based; conditions: Homo sapiens, DU-4475, 168 h, read-out: IC50 DU4475
# CDK4 = CDK4 (Homo sapiens (Human), UniProt P11802); test: In vitro kinase inhibition, luminescence (ADP-Glo) with retinoblastoma substrate; assay type: biochemical
# A549 = test: Cancer cell proliferation assay, single agent; assay type: cell-based; conditions: Homo sapiens, A549, 72 h, read-out: IC50 A549
# CDK6 = CDK6 (Homo sapiens (Human), UniProt Q00534); test: biochemical; assay type: biochemical
# Hs-578T = test: Cancer cell proliferation assay, single agent; assay type: cell-based; conditions: Homo sapiens, Treatment Duration 24 h
# ZR-75-30 = test: Cancer cell proliferation assay, single agent; assay type: cell-based; conditions: Homo sapiens, Treatment Duration 24 h
# CDK1 (cyclin B) = CDK1 (cyclin B) (Homo sapiens (Human), UniProt P06493); test: Z'-LYTE kinase assay; assay type: biochemical
# Description: The following equations were used for Z′-LYTE™ Screening Assay Data Analysis.
# CDK2 (cyclin A) = CDK2 (cyclin A) (Homo sapiens (Human), UniProt P24941); test: Z'-LYTE kinase assay; assay type: biochemical
# Experimental: IC50 values of compounds against CDK2 (cyclin A) were determined by Z'-LYTETM. […] The following equations were used for Z'-LYTETM Screening Assay Data Analysis.
# CDK2 (cyclin E1) = CDK2 (cyclin E1) (Homo sapiens (Human), UniProt P24941); test: LanthaScreen Eu Kinase Binding Assay; conditions: read-out: CDK2/E IC50
# Chain of PI3Kδ kinase (O00329 whole entry): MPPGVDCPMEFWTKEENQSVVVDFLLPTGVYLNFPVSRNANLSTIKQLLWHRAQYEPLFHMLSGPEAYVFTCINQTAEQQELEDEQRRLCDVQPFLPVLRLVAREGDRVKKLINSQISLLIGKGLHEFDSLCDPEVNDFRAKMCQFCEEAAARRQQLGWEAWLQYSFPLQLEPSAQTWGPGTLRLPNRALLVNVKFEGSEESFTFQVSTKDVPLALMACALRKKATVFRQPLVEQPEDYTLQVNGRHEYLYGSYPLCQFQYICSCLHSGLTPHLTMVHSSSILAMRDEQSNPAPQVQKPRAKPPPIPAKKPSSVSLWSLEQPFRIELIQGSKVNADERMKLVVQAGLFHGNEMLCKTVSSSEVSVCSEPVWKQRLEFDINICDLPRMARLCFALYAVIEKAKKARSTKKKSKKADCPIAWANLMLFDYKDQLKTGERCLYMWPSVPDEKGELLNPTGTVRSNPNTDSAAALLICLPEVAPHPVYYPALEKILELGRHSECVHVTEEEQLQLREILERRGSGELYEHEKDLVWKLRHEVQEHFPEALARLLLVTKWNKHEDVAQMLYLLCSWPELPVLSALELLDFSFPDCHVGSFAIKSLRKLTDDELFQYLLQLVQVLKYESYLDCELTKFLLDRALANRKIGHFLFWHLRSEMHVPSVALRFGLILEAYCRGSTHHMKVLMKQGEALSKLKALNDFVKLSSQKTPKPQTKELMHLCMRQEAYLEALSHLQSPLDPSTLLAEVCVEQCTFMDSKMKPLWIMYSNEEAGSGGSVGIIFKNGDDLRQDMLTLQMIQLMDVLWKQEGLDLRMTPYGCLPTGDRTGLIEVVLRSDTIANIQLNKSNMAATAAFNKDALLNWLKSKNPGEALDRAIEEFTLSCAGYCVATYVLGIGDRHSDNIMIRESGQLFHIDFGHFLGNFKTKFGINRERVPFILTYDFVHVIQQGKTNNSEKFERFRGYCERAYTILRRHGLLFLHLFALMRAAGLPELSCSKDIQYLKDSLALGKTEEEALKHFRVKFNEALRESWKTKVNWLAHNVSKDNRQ
# Chain of PI3Kδ kinase (P27986 whole entry partner): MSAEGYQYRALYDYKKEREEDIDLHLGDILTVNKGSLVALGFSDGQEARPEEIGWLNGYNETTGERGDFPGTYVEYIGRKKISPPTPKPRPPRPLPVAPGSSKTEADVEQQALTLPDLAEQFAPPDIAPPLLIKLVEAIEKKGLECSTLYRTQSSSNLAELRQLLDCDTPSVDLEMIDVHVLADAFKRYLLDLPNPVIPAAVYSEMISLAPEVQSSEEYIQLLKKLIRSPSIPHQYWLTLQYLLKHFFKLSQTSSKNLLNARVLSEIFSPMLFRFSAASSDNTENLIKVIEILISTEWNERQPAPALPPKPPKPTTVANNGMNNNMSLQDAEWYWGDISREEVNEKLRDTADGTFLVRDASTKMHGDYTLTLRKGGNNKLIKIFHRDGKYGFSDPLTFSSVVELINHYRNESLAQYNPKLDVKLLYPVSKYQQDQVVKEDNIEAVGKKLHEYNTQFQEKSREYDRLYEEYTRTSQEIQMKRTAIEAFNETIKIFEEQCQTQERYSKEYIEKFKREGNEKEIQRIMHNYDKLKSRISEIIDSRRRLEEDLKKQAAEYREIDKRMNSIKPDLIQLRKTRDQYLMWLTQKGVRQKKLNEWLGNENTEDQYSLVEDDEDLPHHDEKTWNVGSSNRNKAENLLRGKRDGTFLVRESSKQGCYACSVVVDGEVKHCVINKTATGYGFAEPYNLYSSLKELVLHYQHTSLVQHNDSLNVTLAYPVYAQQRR
# Chain of FMS kinase (P07333 20-972): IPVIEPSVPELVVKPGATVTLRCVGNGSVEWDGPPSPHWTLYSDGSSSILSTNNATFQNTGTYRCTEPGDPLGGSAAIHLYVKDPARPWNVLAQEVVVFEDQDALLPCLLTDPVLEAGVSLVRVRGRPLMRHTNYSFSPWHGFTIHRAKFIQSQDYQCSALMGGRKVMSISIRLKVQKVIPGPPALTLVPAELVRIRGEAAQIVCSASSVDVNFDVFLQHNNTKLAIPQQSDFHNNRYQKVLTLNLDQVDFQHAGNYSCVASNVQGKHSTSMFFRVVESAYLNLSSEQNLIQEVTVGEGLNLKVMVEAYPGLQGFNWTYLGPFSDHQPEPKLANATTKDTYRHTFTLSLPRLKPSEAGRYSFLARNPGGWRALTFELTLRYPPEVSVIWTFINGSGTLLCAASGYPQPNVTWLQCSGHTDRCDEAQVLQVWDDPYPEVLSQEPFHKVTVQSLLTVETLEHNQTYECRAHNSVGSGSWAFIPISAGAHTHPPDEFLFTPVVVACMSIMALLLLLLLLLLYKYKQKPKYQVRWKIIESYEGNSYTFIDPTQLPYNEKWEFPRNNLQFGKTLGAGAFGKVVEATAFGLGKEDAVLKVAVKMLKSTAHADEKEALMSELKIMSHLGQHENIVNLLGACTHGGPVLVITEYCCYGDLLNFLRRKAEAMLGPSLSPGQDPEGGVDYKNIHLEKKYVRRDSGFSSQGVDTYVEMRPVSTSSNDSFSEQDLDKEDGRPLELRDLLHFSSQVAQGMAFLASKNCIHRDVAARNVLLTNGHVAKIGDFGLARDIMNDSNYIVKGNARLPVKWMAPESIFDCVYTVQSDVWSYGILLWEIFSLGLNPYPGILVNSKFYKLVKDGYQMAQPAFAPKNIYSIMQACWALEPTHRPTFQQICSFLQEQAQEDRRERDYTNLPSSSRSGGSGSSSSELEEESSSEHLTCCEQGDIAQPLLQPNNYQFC
# Chain of CDK1 (cyclin B) (P06493 whole entry): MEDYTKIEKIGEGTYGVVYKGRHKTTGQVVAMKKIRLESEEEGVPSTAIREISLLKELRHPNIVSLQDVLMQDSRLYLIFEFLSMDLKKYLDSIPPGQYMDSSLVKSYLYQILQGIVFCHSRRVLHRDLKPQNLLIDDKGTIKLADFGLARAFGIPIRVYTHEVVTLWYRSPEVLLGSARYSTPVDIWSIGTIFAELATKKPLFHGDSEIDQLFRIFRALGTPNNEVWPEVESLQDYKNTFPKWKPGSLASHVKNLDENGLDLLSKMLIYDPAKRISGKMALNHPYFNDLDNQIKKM
# Chain of CDK1 (cyclin B) (P14635 whole entry partner): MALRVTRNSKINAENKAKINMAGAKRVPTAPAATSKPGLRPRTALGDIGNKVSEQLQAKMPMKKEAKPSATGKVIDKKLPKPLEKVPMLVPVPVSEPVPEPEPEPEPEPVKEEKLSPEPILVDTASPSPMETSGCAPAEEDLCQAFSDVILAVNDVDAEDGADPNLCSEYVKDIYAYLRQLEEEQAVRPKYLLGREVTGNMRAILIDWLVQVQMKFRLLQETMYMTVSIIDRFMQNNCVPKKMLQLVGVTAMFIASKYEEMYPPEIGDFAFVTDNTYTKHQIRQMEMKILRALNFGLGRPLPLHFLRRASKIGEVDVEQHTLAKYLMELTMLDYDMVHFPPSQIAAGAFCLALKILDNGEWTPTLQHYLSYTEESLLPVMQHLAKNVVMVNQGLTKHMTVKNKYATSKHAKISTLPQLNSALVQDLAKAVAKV
# Chain of CDK4 (P11802 whole entry): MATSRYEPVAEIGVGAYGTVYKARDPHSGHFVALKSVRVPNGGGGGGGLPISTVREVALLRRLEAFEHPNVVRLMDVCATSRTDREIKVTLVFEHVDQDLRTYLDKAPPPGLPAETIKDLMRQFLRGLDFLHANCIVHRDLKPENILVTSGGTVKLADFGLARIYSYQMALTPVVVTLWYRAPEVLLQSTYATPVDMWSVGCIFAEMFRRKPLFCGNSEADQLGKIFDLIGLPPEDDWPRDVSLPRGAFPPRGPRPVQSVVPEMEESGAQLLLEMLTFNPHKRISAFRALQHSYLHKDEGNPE
# Chain of CDK4 (P24385 whole entry partner): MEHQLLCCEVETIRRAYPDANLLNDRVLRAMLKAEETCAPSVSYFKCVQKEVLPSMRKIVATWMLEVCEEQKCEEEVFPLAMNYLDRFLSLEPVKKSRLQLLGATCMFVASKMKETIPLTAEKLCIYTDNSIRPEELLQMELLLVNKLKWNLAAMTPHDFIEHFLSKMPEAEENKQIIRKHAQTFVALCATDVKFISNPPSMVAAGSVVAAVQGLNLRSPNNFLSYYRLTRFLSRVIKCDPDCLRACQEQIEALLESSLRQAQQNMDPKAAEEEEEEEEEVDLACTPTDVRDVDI
SMILES,inhibition at 0.01 µM [1],inhibition at 0.1 µM [1],inhibition at 1 µM [1],IC50 (HCT-116),IC50 (FMS kinase),IC50 (PI3Kδ kinase),IC50 (BT-549),"IC50 (MCF-7; MCF7, Treatment Duration 72 h)",IC50 (DU4475),IC50 (CDK4),IC50 (A549),IC50 (CDK6),IC50 (Hs-578T),IC50 (ZR-75-30),IC50 (CDK1 (cyclin B)),IC50 (CDK2 (cyclin A)),"IC50 (MCF-7; MCF7, 72 h)",IC50 (CDK2 (cyclin E1))
"CC(C)N1CCOc2c(F)cc(-c3nc(Nc4ccc(N5CCNCC5)cn4)ncc3F)cc21 [Compound 1, 5-fluoro-4-(8-fluoro-4-isopropyl-3,4-dihydro-2H-benzo[b][1,4]oxazin-6-yl)-N-(5-(piperazin-1-yl)pyridin-2-yl)pyrimidin-2-amine]",77%,80%,89%,515 nM,1330 nM,3360 nM,3200 nM,68 nM,575 nM,0.2 nM,65 nM,0.2 nM,60 nM,49 nM,–,–,–,–
"CC(C)N1CCOc2c(F)cc(-c3nc(Nc4ccc(N5CCNCC5)c(F)c4)ncc3F)cc21 [Compound 12, 5-fluoro-N-(3-fluoro-4-(piperazin-1-yl)phenyl)-4-(8-fluoro-4-isopropyl-3,4-dihydro-2H-benzo[b][1,4]oxazin-6-yl)pyrimidin-2-amine hydrochloride]",-5%,81%,81%,< 13 nM,29 nM,674 nM,230 nM,–,40 nM,–,< 13 nM,–,–,–,3.9 nM,0.7 nM,< 10 nM,7.2 nM
